Experimental data taken from patent publication US6037351A, “Method of inhibiting hepatitis B virus” (priority 1996, dated 2000).
Entries after “also recorded” stand apart in the source; their conditions may differ.

Assays:
α-glucosidase I = details: N-linked oligosaccharide processing enzyme; cited from earlier work
α-glucosidase II = details: N-linked oligosaccharide processing enzyme; cited from earlier work
[1] = tested on: mouse hepatitis virus (MHV); details: appearance of E2 on the cell surface is delayed; cited from earlier work
[2] = treatment of chronic hepatitis B; clinical tests suspended; cited from earlier work
HBV infection = details: patients; cited from earlier work
cells = details: cited from earlier work
hepatitis B virus (HBV) [3] = experiment: HBV secretion under tunicamycin; format: cell-based; details: found by the present inventors
hepatitis B virus (HBV) [4] = details: previously reported; cited from earlier work
[5] = tested on: N-linked glycosylation of proteins; details: cited from earlier work

In the case of OC[C@H]1NC[C@H](O)[C@@H](O)[C@@H]1O [DNJ, 1,5-Dideoxy-1,5-imino-D-glucitol, reference compound], the “inhibition of α-glucosidase I (in words)” value (α-glucosidase I) is listed as “known inhibitors” and the “inhibition of α-glucosidase II (in words)” value (α-glucosidase II) is listed as “known inhibitors”.

In the case of CN1C[C@H](O)[C@@H](O)[C@H](O)[C@H]1CO [N-methyl deoxynojirimycin], the “formation of mouse hepatitis virus (in words)” value [1] is given as “inhibit the formation of mouse hepatitis virus (MHV)”.

For O=c1[nH]c(=O)n([C@@H]2O[C@H](CO)[C@@H](O)[C@@H]2F)cc1I [fialuridine], the “drug-related liver failure in patients” value [2] is given as “six of 20 patients”.

In the case of Alpha interferon, the “treatment of HBV infection (in words)” value (HBV infection) is given as “promising results in some patients”.

For tunicamycin, the “toxicity to cells (in words)” value (cells) is given as “very toxic to cells”, the “secretion of subviral particles (in words)” value (hepatitis B virus (HBV) [3]; subviral particles) is given as “not subviral particles is inhibited” and the “secretion of HBV virions (in words)” value (hepatitis B virus (HBV) [3]; virions) is given as “inhibited”. The “HBV secretion from HBV infected or HBV-producing cells (in words)” value (hepatitis B virus (HBV) [4]) was “no significant reduction of HBV secretion; also recorded: normal HBV particle secretion” and the “N-linked glycosylation of proteins (in words)” value [5] was “complete inhibition”.
